Measured values taken from patent publication US10577363B2, “Substituted piperidine compounds” (EPIZYME, INC., priority 2014, dated 2020).

Key:
SMYD3 [1] = target: T1, SMYD3 (Homo sapiens (Human), UniProt Q9H7B4); assay: SMYD3 biochemical assay (SPA, 3H-SAM methylation of MEKK2 protein substrate); details: read-out: SMYD3 Biochem IC50*
Method in brief: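 Tritium incorporation into GST-MEKK2 is counted by scintillation proximity after citric acid bead capture. Native human SMYD3 is preincubated with test compound for 30 min at room temperature at pH 8.0 (Tris-Cl, TCEP, BSG, Tween 20) before 3H-SAM and substrate are added; cold SAM at 100 uM final stops turnover.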

SMYD3 [2] = target: T1, SMYD3; assay: SMYD3 cell assay (Trimethyl-MEKK2 In-Cell Western in 293T/17 cells); format: cell-based; details: read-out: SMYD3 Cell IC50*
Method in brief: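 In-Cell Western ratio of trimethyl-Lys260 MEKK2 to anti-flag signal; percent inhibition from DMSO and maximum-inhibition controls, IC50 by non-linear regression, triplicates.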

T1 sequence (Q9H7B4 whole entry): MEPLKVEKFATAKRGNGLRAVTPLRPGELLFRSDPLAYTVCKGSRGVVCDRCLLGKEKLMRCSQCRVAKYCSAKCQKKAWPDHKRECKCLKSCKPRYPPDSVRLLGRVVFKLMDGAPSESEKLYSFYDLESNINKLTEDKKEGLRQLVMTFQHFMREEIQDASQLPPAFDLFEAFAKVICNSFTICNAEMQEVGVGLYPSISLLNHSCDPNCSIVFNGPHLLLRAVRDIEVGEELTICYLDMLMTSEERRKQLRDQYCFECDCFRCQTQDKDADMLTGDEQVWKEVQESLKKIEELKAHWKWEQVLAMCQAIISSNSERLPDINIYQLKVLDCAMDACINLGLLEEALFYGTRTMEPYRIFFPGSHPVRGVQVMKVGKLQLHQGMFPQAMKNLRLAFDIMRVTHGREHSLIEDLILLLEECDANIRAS

Row | Structure (SMILES) | IC50 (SMYD3 [1]) [nM] | IC50 (SMYD3 [2]) [nM]
1 | COCCN[C@H]1CC[C@@H](S(=O)(=O)N2[C@@H]3CC[C@H]2C[C@@H](NC(=O)c2cc(C4CC4)on2)C3)CC1 [compound 826, 5-cyclopropyl-N-((1R,3R,5S)-8-(((1s,4S)-4-((2-methoxyethyl)amino)cyclohexyl)sulfonyl)-8-azabicyclo[3.2.1]octan-3-yl)isoxazole-3-carboxamide] | 3.92 | 58.4
2 | C[C@H]1C[C@@H](NC(=O)c2cc(C3CC3)on2)CCN1S(=O)(=O)CC1CCCC(N)C1 (stereo partly drawn) [compound 827, N-((2S,4S)-1-(((3-aminocyclohexyl)methyl)sulfonyl)-2-methylpiperidin-4-yl)-5-cyclopropylisoxazole-3-carboxamide] | 4 | 72.7
3 | C[C@H]1C[C@@H](NC(=O)c2cc(C3CC3)on2)CCN1S(=O)(=O)N1C2CNCC1C2 [compound 828, N-((2S,4S)-1-((3,6-diazabicyclo[3.1.1]heptan-6-yl)sulfonyl)-2-methylpiperidin-4-yl)-5-cyclopropylisoxazole-3-carboxamide] | 4.18 | 150
4 | CCNC1CCN(S(=O)(=O)N2CC[C@H](NC(=O)c3cc(C4CC4)on3)C[C@@H]2C)CC1 [compound 829, 5-cyclopropyl-N-((2S,4S)-1-((4-(ethylamino)piperidin-1-yl)sulfonyl)-2-methylpiperidin-4-yl)isoxazole-3-carboxamide] | 4.3 | 70.2
5 | NCC1CCN(S(=O)(=O)N2[C@@H]3CC[C@H]2C[C@@H](NC(=O)c2cc(C4CC4)on2)C3)CC1 [compound 830, N-((1R,3r,5S)-8-((4-(aminomethyl)piperidin-1-yl)sulfonyl)-8-azabicyclo[3.2.1]octan-3-yl)-5-cyclopropylisoxazole-3-carboxamide] | 4.34 | 1550
6 | CC1CN(S(=O)(=O)N2[C@@H]3CC[C@H]2C[C@@H](NC(=O)c2cc(C4CC4)on2)C3)CCC1N (stereo partly drawn) [compound 831, N-((1R,3r,5S)-8-((4-amino-3-methylpiperidin-1-yl)sulfonyl)-8-azabicyclo[3.2.1]octan-3-yl)-5-cyclopropylisoxazole-3-carboxamide] | 4.36 | 85.1
7 | O=C(N[C@H]1C[C@H]2CC[C@@H](C1)N2S(=O)(=O)N1C2CNCC1C2)c1cc(C2CC2)on1 [compound 832, N-((1R,3r,5S)-8-((3,6-diazabicyclo[3.1.1]heptan-6-yl)sulfonyl)-8-azabicyclo[3.2.1]octan-3-yl)-5-cyclopropylisoxazole-3-carboxamide] | 4.38 | 134
8 | CCc1cc(C(=O)N[C@H]2C[C@H]3CC[C@@H](C2)N3S(=O)(=O)[C@H]2CC[C@@H](NCCO)CC2)no1 [compound 833, 5-ethyl-N-((1R,3R,5S)-8-(((1s,4S)-4-((2-hydroxyethyl)amino)cyclohexyl)sulfonyl)-8-azabicyclo[3.2.1]octan-3-yl)isoxazole-3-carboxamide] | 4.47 | 72.2
9 | CN(CCCO)C1CCN(S(=O)(=O)N2[C@@H]3CC[C@H]2C[C@@H](NC(=O)c2cc(C4CC4)on2)C3)CC1 [compound 834, 5-cyclopropyl-N-((1R,3r,5S)-8-((4-((3-hydroxypropyl)(methyl)amino)piperidin-1-yl)sulfonyl)-8-azabicyclo[3.2.1]octan-3-yl)isoxazole-3-carboxamide] | 4.57 | 48.7
10 | O=C(N[C@H]1C[C@H]2CC[C@@H](C1)N2S(=O)(=O)N1CCC2(CCCN2)CC1)c1cc(C2CC2)on1 [compound 835, N-((1R,3r,5S)-8-((1,8-diazaspiro[4.5]decan-8-yl)sulfonyl)-8-azabicyclo[3.2.1]octan-3-yl)-5-cyclopropylisoxazole-3-carboxamide] | 4.63 | 118
11 | C[C@H]1C[C@@H](NC(=O)c2cc(C3CC3)on2)CCN1S(=O)(=O)C[C@H]1CCC[C@H](N)C1 [compound 836, N-((2S,4S)-1-((((1S,3S)-3-aminocyclohexyl)methyl)sulfonyl)-2-methylpiperidin-4-yl)-5-cyclopropylisoxazole-3-carboxamide] | 4.64 | 89
12 | C[C@H]1CN(S(=O)(=O)[C@H]2CC[C@H](N(C)C)CC2)CC[C@H]1NC(=O)c1cc(C2CC2)on1 [compound 837, 5-cyclopropyl-N-((3S,4R)-1-(((1r,4S)-4-(dimethylamino)cyclohexyl)sulfonyl)-3-methylpiperidin-4-yl)isoxazole-3-carboxamide] | 4.82 | 84.4
13 | CN(CCCC(F)(F)F)C1CCN(S(=O)(=O)N2[C@@H]3CC[C@H]2C[C@@H](NC(=O)c2cc(C4CC4)on2)C3)CC1 [compound 838, 5-cyclopropyl-N-((1R,3r,5S)-8-((4-(methyl(4,4,4-trifluorobutyl)amino)piperidin-1-yl)sulfonyl)-8-azabicyclo[3.2.1]octan-3-yl)isoxazole-3-carboxamide] | 4.9 | 52.4
14 | C[C@H]1C[C@@H](NC(=O)c2cc(C3CC3)on2)CCN1S(=O)(=O)N1CCC(N(C)Cc2ccccc2)CC1 [compound 839, N-((2S,4S)-1-((4-(benzyl(methyl)amino)piperidin-1-yl)sulfonyl)-2-methylpiperidin-4-yl)-5-cyclopropylisoxazole-3-carboxamide] | 4.97 | 154
15 | O=C(N[C@H]1C[C@H]2CC[C@@H](C1)N2S(=O)(=O)N1CC2CC1CN2)c1cc(C2CC2)on1 [compound 840, N-((1R,3r,5S)-8-((2,5-diazabicyclo[2.2.1]heptan-2-yl)sulfonyl)-8-azabicyclo[3.2.1]octan-3-yl)-5-cyclopropylisoxazole-3-carboxamide] | 5.01 | 56
16 | C[C@H]1C[C@@H](NC(=O)c2cc(C3CC3)on2)CCN1S(=O)(=O)CC[C@@H]1CCNC1 [compound 841, 5-cyclopropyl-N-((2S,4S)-2-methyl-1-((2-((S)-pyrrolidin-3-yl)ethyl)sulfonyl)piperidin-4-yl)isoxazole-3-carboxamide] | 5.05 | 124
17 | C[C@H](C1CCNCC1)S(=O)(=O)N1[C@@H]2CC[C@H]1C[C@@H](NC(=O)c1cc(C3CC3)on1)C2 [compound 842, 5-cyclopropyl-N-((1R,3R,5S)-8-(((R)-1-(piperidin-4-yl)ethyl)sulfonyl)-8-azabicyclo[3.2.1]octan-3-yl)isoxazole-3-carboxamide] | 5.1 | 29
18 | CC(C)CNC1CCN(S(=O)(=O)N2CC[C@H](NC(=O)c3cc(C4CC4)on3)C[C@@H]2C)CC1 [compound 843, 5-cyclopropyl-N-((2S,4S)-1-((4-(isobutylamino)piperidin-1-yl)sulfonyl)-2-methylpiperidin-4-yl)isoxazole-3-carboxamide] | 5.11 | 77.7
19 | CN(CCc1ccccc1)C1CCN(S(=O)(=O)N2[C@@H]3CC[C@H]2C[C@@H](NC(=O)c2cc(C4CC4)on2)C3)CC1 [compound 844, 5-cyclopropyl-N-((1R,3r,5S)-8-((4-(methyl(phenethyl)amino)piperidin-1-yl)sulfonyl)-8-azabicyclo[3.2.1]octan-3-yl)isoxazole-3-carboxamide] | 5.28 | 305
20 | O=C(N[C@H]1C[C@H]2CC[C@@H](C1)N2S(=O)(=O)N1CCC(NCCCO)CC1)c1cc(C2CC2)on1 [compound 845, 5-cyclopropyl-N-((1R,3r,5S)-8-((4-((3-hydroxypropyl)amino)piperidin-1-yl)sulfonyl)-8-azabicyclo[3.2.1]octan-3-yl)isoxazole-3-carboxamide] | 5.3 | 86.3
21 | CC(C)CCN(C)C1CCN(S(=O)(=O)N2[C@@H]3CC[C@H]2C[C@@H](NC(=O)c2cc(C4CC4)on2)C3)CC1 [compound 846, 5-cyclopropyl-N-((1R,3r,5S)-8-((4-(isopentyl(methyl)amino)piperidin-1-yl)sulfonyl)-8-azabicyclo[3.2.1]octan-3-yl)isoxazole-3-carboxamide] | 5.36 | 80.2
22 | C[C@H]1C[C@@H](NC(=O)c2cc(C3CC3)on2)CCN1S(=O)(=O)N1CCC(N2CCCC2)CC1 [compound 847, 5-cyclopropyl-N-((2S,4S)-2-methyl-1-((4-(pyrrolidin-1-yl)piperidin-1-yl)sulfonyl)piperidin-4-yl)isoxazole-3-carboxamide] | 5.53 | 75.8
23 | O=C(N[C@H]1C[C@H]2CC[C@@H](C1)N2S(=O)(=O)N1CCC(NCc2ccc(F)cc2)CC1)c1cc(C2CC2)on1 [compound 848, 5-cyclopropyl-N-((1R,3r,5S)-8-((4-((4-fluorobenzyl)amino)piperidin-1-yl)sulfonyl)-8-azabicyclo[3.2.1]octan-3-yl)isoxazole-3-carboxamide] | 5.73 | 153
24 | O=C(N[C@H]1C[C@H]2CC[C@@H](C1)N2S(=O)(=O)N1CCC2(CCN2)CC1)c1cc(C2CC2)on1 [compound 849, N-((1R,3r,5S)-8-((1,7-diazaspiro[3.5]nonan-7-yl)sulfonyl)-8-azabicyclo[3.2.1]octan-3-yl)-5-cyclopropylisoxazole-3-carboxamide] | 5.95 | 62
25 | O=C(N[C@H]1C[C@H]2CC[C@@H](C1)N2S(=O)(=O)N1CC2CCC(C1)N2CCCO)c1cc(C2CC2)on1 [compound 850, 5-cyclopropyl-N-((1R,3r,5S)-8-((8-(3-hydroxypropyl)-3,8-diazabicyclo[3.2.1]octan-3-yl)sulfonyl)-8-azabicyclo[3.2.1]octan-3-yl)isoxazole-3-carboxamide] | 6.21 | 58.8
26 | COCCN(C)C1CCN(S(=O)(=O)N2CC[C@H](NC(=O)c3cc(C4CC4)on3)C[C@@H]2C)CC1 [compound 851, 5-cyclopropyl-N-((2S,4S)-1-((4-((2-methoxyethyl)(methyl)amino)piperidin-1-yl)sulfonyl)-2-methylpiperidin-4-yl)isoxazole-3-carboxamide] | 6.44 | 125
